Source: patent US20230295087A1, “AGONISTS OF ROR GAMMAt” (BRISTOL-MYERS SQUIBB COMPANY, priority 2019, published 2023)

Target: T1, human RORgT (Homo sapiens, UniProt P51449)
T1 construct: expressed in transfected cells
T1 sequence (P51449 267-516): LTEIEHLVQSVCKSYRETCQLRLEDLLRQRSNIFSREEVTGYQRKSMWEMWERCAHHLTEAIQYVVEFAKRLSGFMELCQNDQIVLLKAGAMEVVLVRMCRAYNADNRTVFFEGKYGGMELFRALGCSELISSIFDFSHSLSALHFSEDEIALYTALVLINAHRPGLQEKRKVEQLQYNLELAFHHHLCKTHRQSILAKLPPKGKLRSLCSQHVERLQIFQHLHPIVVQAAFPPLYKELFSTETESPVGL
Experiment: RORgT Gal4 Luciferase Reporter Gene Assay
Type: cell-based
Settings: engineered Jurkat cells overexpressing RORgT (LBD or full length) fused with Gal4 Luc reporter; 18 hours at 37° C.; luminescence
Method: RORgT Gal4 Luciferase Reporter Gene Assay
25 µL of cryopreserved Jurkat cells over expressing ligand binding domain (LBD) of RORgT (aa267-516, NM_005060) and Gal4 Luc, or full length of human RORgT and Gal4 Luc, were plated in 384-well solid white cell culture plates (PerkinElmer 6007899), with a density of 10,000 cells/well in RPMI 1640 cell culture media (Gibco 11875-085). The media contained 0.1% BSA, 10 mM HEPES (Gibco 15360-080), […] Sodium Pyruvate (Gibco 11360-040), […] Hygromycin B (Invitrogen 10687-010), and […] Blasticidin (Invitrogen R210-01).
100 nL of compound at varying concentrations in 3-fold serial dilution, with final concentrations ranging from 40 µM to 0.67 nM, were added to the cells using Labcyte Echo 550. The compound and the cells were incubated for 18 hours at 37° C. in a cell culture incubator. Cells were then lysed with 15 uL of Steady-Glo Luciferase Assay reagent (Promega EZ550), followed by centrifuging the assay plates at 1500 RPM for 1 minute. Subsequently, the plates were read on the Envision (PerkinElmer). The inhibition of constitutive activity of RORgT achieved by graded concentrations of compound was calculated as a percentage of the luminescence signal window reduction over a control compound.

Structure (SMILES)	EC50 [µM]
Cc1ccccc1Oc1ccc2c(c1)CC[C@H]1N(C(=O)C3CCS(=O)(=O)CC3)CC[C@@]21S(=O)(=O)c1ccc(F)cc1 [Example 49, 4-[(3aR,9bR)-9b-(4-fluorobenzenesulfonyl)-7-(2-methylphenoxy)-1H,2H,3H,3aH,4H,5H,9bH-benzo[e]indole-3-carbonyl]-1λ^6-thiane-1,1-dione]	0.0018
O=C(O)[C@H]1CC[C@H](C(=O)N2CC[C@@]3(S(=O)(=O)c4ccccc4)c4ccc(OCc5ccccc5)cc4CC[C@@H]23)CC1 [Example 54, (1r,4r)-4-[(3aR,9bR)-9b-(benzenesulfonyl)-7-(benzyloxy)-1H,2H,3H,3aH,4H,5H,9bH-benzo[e]indole-3-carbonyl]cyclohexane-1-carboxylic acid]	0.29
CN1CCC(C(=O)N2CC[C@@]3(S(=O)(=O)c4ccccc4)c4ccc(OCc5c(Cl)cccc5Cl)cc4CC[C@@H]23)CC1=O (stereo partly drawn) [Example 55, 4-[(3aR,9bR)-9b-(benzenesulfonyl)-7-[(2,6-dichlorophenyl)methoxy]-1H,2H,3H,3aH,4H,5H,9bH-benzo[e]indole-3-carbonyl]-1-methylpiperidin-2-one]	0.083
O=C(CC1CCS(=O)(=O)CC1)N1CC[C@@]2(S(=O)(=O)c3ccccc3)c3ccc(OCc4c(Cl)cccc4Cl)cc3CC[C@@H]12 [Example 56, 4-{2-[(3aR,9bR)-9b-(benzenesulfonyl)-7-[(2,6-dichlorophenyl)methoxy]-1H,2H,3H,3aH,4H,5H,9bH-benzo[e]indol-3-yl]-2-oxoethyl}-1λ^6-thiane-1,1-dione]	0.066
CS(=O)(=O)NCC(=O)N1CC[C@@]2(S(=O)(=O)c3ccccc3)c3ccc(OCc4c(Cl)cccc4Cl)cc3CC[C@@H]12 [Example 58, N-{2-[(3aR,9bR)-9b-(benzenesulfonyl)-7-[(2,6-dichlorophenyl)methoxy]-1H,2H,3H,3aH,4H,5H,9bH-benzo[e]indol-3-yl]-2-oxoethyl} methanesulfonamide]	0.587
O=C(C1CCS(=O)(=O)C1)N1CC[C@@]2(S(=O)(=O)c3ccccc3)c3ccc(OCc4c(Cl)cccc4Cl)cc3CC[C@@H]12 (stereo partly drawn) [Example 59, 3-[(3aR,9bR)-9b-(benzenesulfonyl)-7-[(2,6-dichlorophenyl)methoxy]-1H,2H,3H,3aH,4H5H,9bH-benzo[e]indole-3-carbonyl]-1λ^6-thiolane-1,1-dione]	0.016
CS(=O)(=O)N1CCC(C(=O)N2CC[C@@]3(S(=O)(=O)c4ccccc4)c4ccc(OCc5c(Cl)cccc5Cl)cc4CC[C@@H]23)CC1 [Example 60, 4-[(3aR,9bR)-9b-(benzenesulfonyl)-7-[(2,6-dichlorophenyl)methoxy]-1H,2H,3H,3aH,4H,5H,9bH-benzo[e]indole-3-carbonyl]-1-methanesulfonylpiperidine]	0.01
CN1CCC(C(=O)N2CC[C@@]3(S(=O)(=O)c4ccccc4)c4ccc(OCc5c(Cl)cccc5Cl)cc4CC[C@@H]23)CC1 [Example 61, 4-[(3aR,9bR)-9b-(benzenesulfonyl)-7-[(2,6-dichlorophenyl)methoxy]-1H,2H,3H,3aH,4H,5H,9bH-benzo[e]indole-3-carbonyl]-I-methylpiperidine]	0.076
NC(=O)N1CCC(C(=O)N2CC[C@@]3(S(=O)(=O)c4ccccc4)c4ccc(OCc5c(Cl)cccc5Cl)cc4CC[C@@H]23)CC1 [Example 62, 4-[(3aR,9bR)-9b-(benzenesulfonyl)-7-[(2,6-dichlorophenyl)methoxy]-1H,2H,3H,3aH,4H,5H,9bH-benzo[e]indole-3-carbonyl]piperidine-1-carboxamide]	0.015
O=C(C1CCS(=O)(=O)N1)N1CC[C@@]2(S(=O)(=O)c3ccccc3)c3ccc(OCc4c(Cl)cccc4Cl)cc3CC[C@@H]12 (stereo partly drawn) [Example 63, 3-[(3aR,9bR)-9b-(benzenesulfonyl)-7-[(2,6-dichlorophenyl)methoxy]-1H,2H,3H,3aH,4H,5H,9bH-benzo[e]indole-3-carbonyl]-1λ^6,2-thiazolidine-1,1-dione]	0.062
O=C(CN1CCCCS1(=O)=O)N1CC[C@@]2(S(=O)(=O)c3ccccc3)c3ccc(OCc4c(Cl)cccc4Cl)cc3CC[C@@H]12 [Example 64, 2-{2-[(3aR,9bR)-9b-(benzenesulfonyl)-7-[(2,6-dichlorophenyl)methoxy]-1H,2H,3H,3aH,4H,5H,9bH-benzo[e]indol-3-yl]-2-oxoethyl}-1λ^6,2-thiazinane-1,1-dione]	0.921
O=C1NC(C(=O)N2CC[C@@]3(S(=O)(=O)c4ccccc4)c4ccc(OCc5c(Cl)cccc5Cl)cc4CC[C@@H]23)CO1 (stereo partly drawn) [Example 65, 4-[(3aR,9bR)-9b-(benzenesulfonyl)-7-[(2,6-dichlorophenyl)methoxy]-1H,2H,3H,3aH,4H,5H,9bH-benzo[e]indole-3-carbonyl]-1,3-oxazolidin-2-one]	0.256
O=C(O)C1CCC(C(=O)N2CC[C@@]3(S(=O)(=O)c4ccccc4)c4ccc(OCc5c(Cl)cccc5Cl)cc4CC[C@@H]23)CC1 (stereo partly drawn) [Example 66, 4-[(3aR,9bR)-9b-(benzenesulfonyl)-7-[(2,6-dichlorophenyl)methoxy]-1H,2H,3H,3aH,4H,5H,9bH-benzo[e]indole-3-carbonyl]cyclohexane-1-carboxylic acid]	0.272
CC(=O)NC1CC2(C1)CC(C(=O)N1CC[C@@]3(S(=O)(=O)c4ccccc4)c4ccc(OCc5c(Cl)cccc5Cl)cc4CC[C@@H]13)C2 (stereo partly drawn) [Example 67, N-{6-[(3aR,9bR)-9b-(benzenesulfonyl)-7-[(2,6-dichlorophenyl)methoxy]-1H,2H,3H,3aH,4H,5H,9bH-benzo[e]indole-3-carbonyl]spiro[3.3]heptan-2-yl}acetamide]	0.416
CS(=O)(=O)CC(=O)N1CC[C@@]2(S(=O)(=O)c3ccccc3)c3ccc(OCc4c(Cl)cccc4Cl)cc3CC[C@@H]12 [Example 69, 1-[(3aR,9bR)-9b-(benzenesulfonyl)-7-[(2,6-dichlorophenyl)methoxy]-1H,2H,3H,3aH,4H,5H,9bH-benzo[e]indol-3-yl]-2-methanesulfonylethan-1-one]	0.017

Next, values leading:

EC50 [µM]	Structure (SMILES)
0.0075	Cc1ccccc1Oc1ccc2c(c1)CC[C@H]1N(C(=O)C3(C)CCS(=O)(=O)CC3)CC[C@@]21S(=O)(=O)c1ccc(F)cc1 [Example 48, 4-[(3aR,9bR)-9b-(4-fluorobenzenesulfonyl)-7-(2-methylphenoxy)-1H,2H,3H,3aH,4H,5H,9bH-benzo[e]indole-3-carbonyl]-4-methyl-1λ^6-thiane-1,1-dione]
0.0068	Cc1ccccc1Oc1ccc2c(c1)CC[C@H]1N(C(=O)[C@]3(C)CC[C@@H](C(=O)O)CC3)CC[C@@]21S(=O)(=O)c1ccc(F)cc1 [Example 50, (1r,4r)-4-[(3aR,9bR)-9b-(4-fluorobenzenesulfonyl)-7-(2-methylphenoxy)-1H,2H,3H,3aH,4H,5H,9bH-benzo[e]indole-3-carbonyl]-4-methylcyclohexane-1-carboxylic acid]
0.032	CC(=O)N1CCC(CN2CC[C@@]3(S(=O)(=O)c4ccc(F)cc4)c4ccc(OCc5c(F)cccc5C(F)(F)F)cc4CC[C@@H]23)CC1 [Example 51, 1-(4-{[(3aR,9bR)-7-{[2-fluoro-6-(trifluoromethyl)phenyl]methoxy} -9b-(4-fluorobenzenesulfonyl)-1H,2H,3H,3aH,4H,5H,9bH-benzo[e]indol-3-yl]methyl}piperidin-1-yl)ethan-1-one]
0.024	CC(=O)N1CCC(C)(CN2CC[C@@]3(S(=O)(=O)c4ccc(F)cc4)c4ccc(OCc5c(F)cccc5C(F)(F)F)cc4CC[C@@H]23)CC1 [Example 52, 1-(4-{[(3aR,9bR)-7-{[2-fluoro-6-(trifluoromethyl)phenyl]methoxy} -9b-(4-fluorobenzenesulfonyl)-1H,2H3H,3aH,4H,5H,9bH-benzo[e]indol-3-yl]methyl}-4-methylpiperidin-1-yl)ethan-1-one]
0.016	CC(C)(C)OC(=O)N1CC[C@@]2(S(=O)(=O)c3ccc(F)cc3)c3ccc(Cc4ccccc4)cc3CC[C@@H]12 [Example 53, ert-butyl (3aR,9bR)-7-benzyl-9b-(4-fluorobenzenesulfonyl)-1H,2H,3H,3aH,4H,5H,9bH-benzo[e]indole-3-carboxylate]
0.013	CC(=O)N1CCC(C(=O)N2CC[C@@]3(S(=O)(=O)c4ccccc4)c4ccc(OCc5c(Cl)cccc5Cl)cc4CC[C@@H]23)CC1 [Example 57, 1-{4-[(3aR,9bR)-9b-(benzenesulfonyl)-7-[(2,6-dichlorophenyl)methoxy]-1H,2H,3H,3aH,4H,5H,9bH-benzo[e]indole-3-carbonyl]piperidin-1-yl}ethan-1-one]
0.409	CC(=O)N1CC2(CC(C(=O)N3CC[C@@]4(S(=O)(=O)c5ccccc5)c5ccc(OCc6c(Cl)cccc6Cl)cc5CC[C@@H]34)C2)C1 [Example 68, 1-{6-[(3aR,9bR)-9b-(benzenesulfonyl)-7-[(2,6-dichlorophenyl)methoxy]-1H,2H,3H,3aH,4H,5H,9bH-benzo[e]indole-3-carbonyl]-2-azaspiro[3.3]heptan-2-yl}ethan-1-one]
